Assay [1] in a line: Inhibitory concentration against Beta Glucosidase from Almonds. The arrangement: species or system Prunus dulcis.
Assay [2] in a line: Inhibitory activity against Beta Glucosidase from Almonds. The arrangement: species or system Prunus dulcis.
Assay [3] has as its target T1, Beta-glucosidase A (Caldicellulosiruptor saccharolyticus, UniProt P10482). As to the kind of experiment: Inhibitory concentration against Beta Glucosidase from Caldocellum saccharolyticum.
Assay [4] is described as follows: Inhibition against Alpha Glucosidase from yeast at 1 mM; (ni=no inhibition).
Assay [5] has as its target T2, Exo-1,4-beta-xylosidase xlnD (Aspergillus niger) (UniProt O00089).
T2 sequence (whole entry): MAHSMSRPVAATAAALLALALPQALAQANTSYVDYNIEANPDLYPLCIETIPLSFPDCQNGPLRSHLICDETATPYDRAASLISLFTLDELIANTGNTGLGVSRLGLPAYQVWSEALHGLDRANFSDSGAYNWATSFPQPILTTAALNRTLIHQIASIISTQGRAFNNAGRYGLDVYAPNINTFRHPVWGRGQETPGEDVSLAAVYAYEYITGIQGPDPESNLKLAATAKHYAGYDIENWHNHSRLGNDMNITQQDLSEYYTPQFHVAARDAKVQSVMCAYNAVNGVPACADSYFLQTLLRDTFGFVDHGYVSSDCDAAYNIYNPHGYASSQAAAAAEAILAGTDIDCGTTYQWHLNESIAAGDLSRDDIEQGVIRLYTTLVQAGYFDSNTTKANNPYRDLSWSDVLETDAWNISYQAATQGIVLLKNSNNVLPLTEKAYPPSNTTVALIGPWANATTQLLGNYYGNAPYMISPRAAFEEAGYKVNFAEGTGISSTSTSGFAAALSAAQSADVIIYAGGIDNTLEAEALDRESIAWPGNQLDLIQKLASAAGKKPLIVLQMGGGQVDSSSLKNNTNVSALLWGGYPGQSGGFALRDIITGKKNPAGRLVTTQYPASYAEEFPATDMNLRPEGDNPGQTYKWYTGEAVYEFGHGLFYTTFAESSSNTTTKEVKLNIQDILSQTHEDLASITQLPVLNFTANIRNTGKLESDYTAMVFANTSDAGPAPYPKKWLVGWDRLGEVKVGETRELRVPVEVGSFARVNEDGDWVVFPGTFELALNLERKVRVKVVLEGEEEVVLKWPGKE
As to the kind of experiment: Inhibition against Beta-xylosidase from Aspergillus niger at 1 mM; (ni=no inhibition).

Assay [6] has as its target T3, Glucoamylase 1 (Rhizopus oryzae) (UniProt P07683).
T3 sequence (whole entry): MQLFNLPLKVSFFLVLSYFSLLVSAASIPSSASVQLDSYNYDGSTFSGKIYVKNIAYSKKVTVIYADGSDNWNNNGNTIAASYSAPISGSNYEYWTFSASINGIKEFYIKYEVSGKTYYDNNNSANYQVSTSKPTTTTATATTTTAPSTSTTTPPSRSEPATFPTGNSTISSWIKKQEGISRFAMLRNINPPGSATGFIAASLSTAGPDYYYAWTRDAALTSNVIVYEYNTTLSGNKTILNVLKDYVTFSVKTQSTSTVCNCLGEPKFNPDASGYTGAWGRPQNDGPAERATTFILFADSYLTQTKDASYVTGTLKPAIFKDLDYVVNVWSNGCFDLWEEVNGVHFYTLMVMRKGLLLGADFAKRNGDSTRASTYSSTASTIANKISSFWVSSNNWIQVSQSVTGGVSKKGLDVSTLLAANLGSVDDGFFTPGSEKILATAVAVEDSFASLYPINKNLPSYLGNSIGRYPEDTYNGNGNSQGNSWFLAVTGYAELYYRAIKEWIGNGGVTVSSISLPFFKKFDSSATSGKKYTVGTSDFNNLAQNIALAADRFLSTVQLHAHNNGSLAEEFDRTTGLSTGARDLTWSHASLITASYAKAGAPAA
As to the kind of experiment: Percent inhibition against Amyloglucosidase from Rhizopus mold at 1 mM.

Assay [7] addresses T4, Alpha-glucosidase (Oryza sativa Japonica Group) (UniProt Q9LGC6).
T4 sequence (whole entry): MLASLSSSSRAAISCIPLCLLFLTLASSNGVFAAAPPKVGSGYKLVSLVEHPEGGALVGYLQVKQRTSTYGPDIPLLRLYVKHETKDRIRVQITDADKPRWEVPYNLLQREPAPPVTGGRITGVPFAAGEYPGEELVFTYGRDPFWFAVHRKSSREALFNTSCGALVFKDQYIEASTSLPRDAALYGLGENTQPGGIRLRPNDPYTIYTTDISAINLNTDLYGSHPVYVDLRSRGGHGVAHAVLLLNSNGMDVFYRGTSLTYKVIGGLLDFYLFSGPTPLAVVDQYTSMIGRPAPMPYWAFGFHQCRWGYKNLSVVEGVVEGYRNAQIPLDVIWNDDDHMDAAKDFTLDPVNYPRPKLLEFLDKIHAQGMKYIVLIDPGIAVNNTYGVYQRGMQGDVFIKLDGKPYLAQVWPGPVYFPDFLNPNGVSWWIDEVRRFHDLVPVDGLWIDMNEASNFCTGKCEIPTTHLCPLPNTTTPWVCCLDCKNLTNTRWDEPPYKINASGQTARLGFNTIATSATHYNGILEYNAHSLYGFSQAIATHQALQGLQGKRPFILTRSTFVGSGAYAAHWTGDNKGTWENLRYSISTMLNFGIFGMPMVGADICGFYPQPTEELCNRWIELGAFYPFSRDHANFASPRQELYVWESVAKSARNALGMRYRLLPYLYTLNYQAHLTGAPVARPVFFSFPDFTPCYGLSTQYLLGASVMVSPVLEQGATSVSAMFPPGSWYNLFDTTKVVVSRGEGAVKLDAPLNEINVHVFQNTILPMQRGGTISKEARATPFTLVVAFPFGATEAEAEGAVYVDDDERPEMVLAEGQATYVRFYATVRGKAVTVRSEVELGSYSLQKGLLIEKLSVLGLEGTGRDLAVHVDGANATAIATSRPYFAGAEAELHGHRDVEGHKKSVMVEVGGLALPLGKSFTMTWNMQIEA
Description: Inhibition against Alpha Glucosidase from rice at 1 mM; (ni=no inhibition).

Assay [8] concerns the target Beta-glucosidase A (Caldicellulosiruptor saccharolyticus) (UniProt P10482). As to the kind of experiment: Inhibition against Beta Glucosidase from Caldocellum saccharolyticum at 1 mM; (ni=no inhibition).
In assay [9] the target is Glucoamylase (Aspergillus niger) (UniProt P69328). As to the kind of experiment: Percent inhibition against Amyloglucosidase from Aspergillus niger at 1 mM concentration.
Assay [10] relates to Prunus dulcis. Description: Percent inhibition against Beta Glucosidase from Almonds at 1 mM.
For assay [11], the system named is Prunus dulcis. As to the kind of experiment: Inhibition against Beta Glucosidase from Almonds at 1 mM; (ni=no inhibition).
Assay [12] in a line: Percent inhibition against Alpha Glucosidase from yeast at 1 mM.
In assay [13] the target is Glucoamylase (Aspergillus niger) (UniProt P69328). As to the kind of experiment: Inhibition against Amyloglucosidase from Aspergillus niger at 1 mM; (ni=no inhibition).
For assay [14], the system named is Prunus dulcis. As to the kind of experiment: Inhibition against Beta Glucosidase from Almonds at 1 mM.
The target of assay [15] is T3, Glucoamylase 1 (Rhizopus oryzae). As to the kind of experiment: Inhibition against Amyloglucosidase from Rhizopus mold at 1 mM; (ni=no inhibition).
A short description of assay [16]: Inhibitory concentration against Beta Glucosidase Almonds. The arrangement: species or system Prunus dulcis.
In assay [17] the target is T2, Exo-1,4-beta-xylosidase xlnD (Aspergillus niger). Description: Inhibition against Beta-xylosidase from Aspergillus niger at 1 mM concentration.
In assay [18] the target is Beta-glucosidase A (Caldicellulosiruptor saccharolyticus) (UniProt P10482). As to the kind of experiment: Percent inhibition against Beta Glucosidase from Caldocellum saccharolyticum at 1 mM.
The target in assay [19] is T2, Exo-1,4-beta-xylosidase xlnD (Aspergillus niger). Description: Percent inhibition against Beta-xylosidase from Aspergillus niger at 1 mM; (ni=no inhibition).
Assay [20] shares this target. As to the kind of experiment: Percent inhibition against Beta-xylosidase from Aspergillus niger at 1 mM.
Assay [21] deals with T1, Beta-glucosidase A. As to the kind of experiment: Inhibitory concentration against Beta Glucosidase Caldocellum saccharolyticum.

Calls of active or inactive are those of the source. No cut-off for these calls is given here.

Glucoamylase (Aspergillus niger), sequence (P69328 whole entry): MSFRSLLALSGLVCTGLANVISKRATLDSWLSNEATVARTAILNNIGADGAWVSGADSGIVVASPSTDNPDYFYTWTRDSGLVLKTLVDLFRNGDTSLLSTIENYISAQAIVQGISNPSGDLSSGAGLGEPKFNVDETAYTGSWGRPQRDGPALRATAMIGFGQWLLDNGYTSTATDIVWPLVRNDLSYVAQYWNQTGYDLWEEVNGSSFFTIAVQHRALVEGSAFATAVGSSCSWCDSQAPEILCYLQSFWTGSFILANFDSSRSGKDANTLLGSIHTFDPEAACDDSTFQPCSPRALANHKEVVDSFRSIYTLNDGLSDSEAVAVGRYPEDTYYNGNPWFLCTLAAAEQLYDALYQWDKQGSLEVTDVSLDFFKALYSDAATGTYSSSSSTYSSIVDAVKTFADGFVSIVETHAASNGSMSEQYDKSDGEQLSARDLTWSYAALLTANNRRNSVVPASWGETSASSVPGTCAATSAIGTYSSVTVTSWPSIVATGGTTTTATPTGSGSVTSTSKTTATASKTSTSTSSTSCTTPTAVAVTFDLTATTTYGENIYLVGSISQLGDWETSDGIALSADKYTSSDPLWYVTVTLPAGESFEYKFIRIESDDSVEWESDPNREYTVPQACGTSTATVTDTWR
Beta-glucosidase A (Caldicellulosiruptor saccharolyticus), sequence (P10482 whole entry): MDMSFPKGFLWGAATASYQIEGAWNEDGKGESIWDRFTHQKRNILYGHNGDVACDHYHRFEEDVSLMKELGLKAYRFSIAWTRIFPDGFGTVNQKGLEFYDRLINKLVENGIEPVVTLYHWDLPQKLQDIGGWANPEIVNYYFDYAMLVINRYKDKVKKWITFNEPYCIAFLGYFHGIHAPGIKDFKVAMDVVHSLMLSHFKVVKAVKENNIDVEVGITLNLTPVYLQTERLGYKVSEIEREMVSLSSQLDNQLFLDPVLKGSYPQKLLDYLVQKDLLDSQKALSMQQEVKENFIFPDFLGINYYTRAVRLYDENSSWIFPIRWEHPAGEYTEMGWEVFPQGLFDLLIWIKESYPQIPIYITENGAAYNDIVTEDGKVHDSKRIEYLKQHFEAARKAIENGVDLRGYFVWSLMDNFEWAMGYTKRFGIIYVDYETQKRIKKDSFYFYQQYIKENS
T1 sequence (P10482 whole entry): as above

As for `OC1C=CC(NCc2ccc(Oc3ccccc3)cc2)C(O)C1O` (stereo in doubt; 4j), the values for the IC50 in [1] and in assay [3] were 43 µM and 52 µM, respectively. The same compound returned an inhibition constant Ki in [2] of 13 µM.

The compound `COc1ccc(CNC2C=CC(O)C(O)C2O)cc1` (stereo in doubt; 4g) [listing 1 of 2 here] returned an IC50 in [1] of 52 µM. In assay [2], this compound showed a Ki of 25 µM.

Regarding `COc1ccc(CNC2C=CC(O)C(O)C2O)cc1` (stereo in doubt), the inhibition entry in assay [4], in assay [5], in [7] and in assay [8] was “inactive” each time. Moreover, the inhibition in [6] is 72%; in [9], 63%; in [10], 51%.

For `Oc1ccccc1CNC1C=CC(O)C(O)C1O` (stereo in doubt), the inhibition entry in assay [4], in [5], in [7], in assay [11] and in assay [8] was “inactive” in each case. For the same compound, the results for the inhibition in assay [6] and in assay [9] were 41% and 42%, respectively.

Take `Oc1ccccc1CNC1C=CC(O)C(O)C1O` (stereo in doubt; 4k): the inhibition entry in assay [5], in assay [7], in assay [11], in assay [13] and in [8] was “inactive” throughout. Further, the inhibition in [6] worked out at 29%; in assay [12], 41%.

Regarding `CCCNC1C=CC(O)C(O)C1O` (racemic), the inhibition result in assay [4], in [5], in assay [7] and in assay [13] was “inactive” each time. Besides, the inhibition in assay [6] came out at 30%; in assay [14] it was 80%. This compound also came in with an IC50 in assay [1] of 66 µM.

As for `OC1C=CC(NCc2ccc(Cl)cc2)C(O)C1O` (stereo in doubt), the inhibition entry in [4], in [5], in assay [7] and in assay [8] was “inactive” in each case. In addition, the figures for the inhibition in assay [6], in [9] and in assay [10] were 72%, 45% and 51%, respectively.

For `CCCCCCCCNC1C=CC(O)C(O)C1O` (racemic), the inhibition result in assay [4], in [5], in assay [15], in [7] and in assay [13] was “inactive” each time. Also, the inhibition in assay [10] was 85%. For the same compound, the midpoint of inhibition in assay [16], the IC50, lay at 69 µM.

Turning to `OC1C=CC(NCc2ccccc2)C(O)C1O` (stereo in doubt; 4e) [listing 1 of 2 here], the inhibition entry in assay [4], in [15], in assay [7] and in assay [13] was “inactive” throughout. Besides, the figures for the inhibition in assay [17], in assay [18] and in assay [10] were 74%, 43% and 96%, respectively.

Consider `Oc1ccc(CNC2C=CC(O)C(O)C2O)cc1` (stereo in doubt; 4f), for which the inhibition result in assay [4] and in assay [7] was “inactive” in each case. The inhibition in assay [6] came out at 57%; in assay [18] it was 56%; in [9], 31%; in [10], 93%; in [19], 67%.

In the case of `COc1ccc(CNC2C=CC(O)C(O)C2O)cc1` (stereo in doubt; 4g) [listing 2 of 2 here], the inhibition entry in assay [4], in [15], in assay [7] and in assay [13] was “inactive” each time. The values for the inhibition in assay [20], in [18] and in assay [10] were 74%, 68% and 95%, respectively.

Take `OC1C=CC(NCc2ccccc2)C(O)C1O` (stereo in doubt; 4e) [listing 2 of 2 here]: the IC50 in assay [1] worked out at 32 µM. In [2], this compound returned a Ki of 10 µM.

On to `OC1C=CC(NCc2ccc(-c3ccccc3)cc2)C(O)C1O` (stereo in doubt; 4i), for which the results for the IC50 in assay [21] and in assay [1] were 35 µM and 32 µM, respectively. This compound also showed a Ki in assay [2] of 8 µM.

Turning to `Oc1ccc(CNC2C=CC(O)C(O)C2O)cc1` (stereo in doubt), the inhibition entry in assay [4], in assay [5], in assay [7] and in assay [8] was “inactive” each time. Besides, the values for the inhibition in [6], in assay [9] and in [10] were 85%, 94% and 26%, respectively.

Consider `OC1C=CC(NCc2ccc(Cl)cc2)C(O)C1O` (stereo in doubt; 4h), for which the IC50 in assay [1] was determined as 35 µM; in assay [3], 185 µM.

Broadly, the IC50 is the midpoint of a concentration-inhibition curve. Lower therefore signals higher potency. As a reminder, the Ki is the dissociation constant of the complex between target and ligand, obtained from inhibition or displacement. A higher Ki goes with a looser hold on the target. In general, inhibition refers to how much of the control response was suppressed.

Values taken from ChEMBL document CHEMBL1139626, “Total asymmetric synthesis of (-)-conduramine B-1 and of its enantiomer. N-Benzyl derivatives of conduramine B-1 are beta-glucosidase inhibitors” (Bioorg Med Chem Lett, 2005).
